US9828338B2, “Carbamate derivatives of lactam based N-acylethanolamine acid amidase (NAAA) inhibitors” (The Regents of the University of California, priority 2013, dated 2017)
pIC50: −log10 of the molar value.

Molecular target: T1, r-NAAA (Rattus norvegicus, UniProt Q5KTC7)
T1 construct: Lysosomal NAAA protein preparation was obtained by homogenizing male Sprague-Dawley rat lungs; tissue Charles River (animals); host or cells: male Sprague-Dawley rat lung, soluble lysosomal fraction
T1 sequence (Q5KTC7 34-362): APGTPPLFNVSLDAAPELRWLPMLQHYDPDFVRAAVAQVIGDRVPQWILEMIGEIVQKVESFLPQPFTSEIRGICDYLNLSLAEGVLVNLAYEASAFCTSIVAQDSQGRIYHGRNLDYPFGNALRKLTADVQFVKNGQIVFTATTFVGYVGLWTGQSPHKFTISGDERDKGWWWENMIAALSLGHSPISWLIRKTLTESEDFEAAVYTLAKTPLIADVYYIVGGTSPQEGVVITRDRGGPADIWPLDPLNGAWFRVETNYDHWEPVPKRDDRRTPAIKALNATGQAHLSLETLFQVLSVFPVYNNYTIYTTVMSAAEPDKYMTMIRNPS
Assay: UPLC/MS r-NAAA assay
Format: biochemical
Settings: not given
Protocol: Lysosomal NAAA protein preparation was obtained by homogenizing male Sprague-Dawley rat lungs (Charles River) in 20 mM Tris-HCl buffer pH 7.4 containing 0.32M sucrose. […] Supernatants were then centrifuged at 12,000 xg for 30 min at 4° C. Pellets were then resuspended in PBS pH 7.4 and subjected to a freeze/thaw cycle at −80° C. The suspension was finally centrifuged at 105,000×g for 1 h at 4° C. The supernatant was then used in the enzymatic assay.
NAAA protein preparation was pre-incubated with various concentrations of test compounds or vehicle control in 100 mM NaH2PO4/Citrate buffer, 1% Triton-X, 3 mM DTT (pH 4.5) for 30 min at 37° C. Samples were then incubated with heptadecenoylethanolamide (50 μM, Avanti Polar Lipids) at 37° C. for 30 min. The reaction was terminated by addition of cold methanol containing heptadecanoic acid (NuCheck Prep) as internal standard. Samples were then analyzed by UPLC/MS (Acquity, Waters). […] The column temperature was 40° C. Electrospray ionization was in the negative mode, capillary voltage was 0.5 kV, cone voltage was […], desolvation temperature was 500° C. N2 was used as drying gas at a flow rate of 1000 L/hour and a temperature of 500° C. […] Calibration curves were generated using commercial heptadecenoic acid (NuCheck Prep) Inhibition of NAAA activity was calculated as reduction of heptadecenoic acid in the samples compared to vehicle controls. IC50 values were calculated by non-linear regression analysis of log [concentration]/inhibition curves using GraphPad Prism 5 (GraphPad Software Inc., CA—USA) applying a standard slope curve fitting.

Compound	pIC50
O=C(N[C@H]1CNC1=O)OCCOCC1CCCCC1 [Example 49, 2-(Cyclohexylmethoxy)-ethyl-N-[(3S)-2-oxoazetidin-3-yl]-carbamate]	5.78
O=C(N[C@H]1CNC1=O)OCCOCCC1CCCCC1 [Example 51, 2-(2-Cyclohexylethoxy)-ethyl-N-[(3S)-2-oxoazetidin-3-yl]-carbamate]	6.11
CCCCCCCCOC(=O)N[C@H]1CNC1=O [Example 24, Octyl-N-[(3S)-2-oxoazetidin-3-yl]-carbamate]	7.80
O=C(N[C@H]1CNC1=O)OCCCCCC1CCCCC1 [Example 19, 5-Cyclohexylpentyl-N-[(3S)-2-oxoazetidin-3-yl]-carbamate]	7.24
O=C(N[C@H]1CNC1=O)OCCCCC1CCCC1 [Example 20, 4-Cyclopentylbutyl-N-[(3S)-2-oxoazetidin-3-yl]-carbamate]	7.32
CCCCCCOC(=O)N[C@H]1CNC1=O [Example 23, Hexyl-N-[(3S)-2-oxoazetidin-3-yl]-carbamate]	5.80
O=C(N[C@H]1CNC1=O)OC1CCC(Cc2ccccc2)CC1 (mixture of isomers) [Example 7, (1s,4R) and (1r,4S)-(4-Benzylcyclohexyl)-N-[(3S)-2-oxoazetidin-3-yl]-carbamate]	5.18
C[C@@H]1NC(=O)[C@@H]1NC(=O)OCCCCC1CCCCC1 [Example 83, 4-Cyclohexylbutyl-N-[(2S,3R)-2-methyl-4-oxo-azetidin-3-yl]-carbamate]	5.33
O=C(N[C@H]1CNC1=O)OC1CCC(=Cc2ccccc2)CC1 (stereo partly drawn) [Example 8, (R,E) and (S,Z)-(4-Benzylidenecyclohexyl)-N-[(3S)-2-oxoazetidin-3-yl]-carbamate]	5.24

Next, values leading:

pIC50	Compound
6.74	CC(C)(C)c1ccc(COC(=O)N[C@H]2CNC2=O)cc1 [Example 57, (4-tert-Butylphenyl)-methyl-N-[(3S)-2-oxoazetidin-3-yl]-carbamate]
5.80	O=C(N[C@H]1CNC1=O)OCC/C=C\c1ccccc1 [Example 12, [(Z)-4-Phenylbut-3-enyl]-N-[(3S)-2-oxoazetidin-3-yl]-carbamate]
6.06	Cc1cccc(-c2ccc(COC(=O)N[C@H]3CNC3=O)cc2)c1 [Example 43, [4-(m-Tolyl)-phenyl]-methyl-N-[(3S)-2-oxoazetidin-3-yl]-carbamate]
6.21	Cc1cccc(-c2ccc(COC(=O)N[C@H]3CNC3=O)cc2C)c1 [Example 42, [3-Methyl-4-(m-tolyl)-phenyl]-methyl-N-[(3S)-2-oxoazetidin-3-yl]-carbamate]
6.29	Cc1ccccc1-c1ccc(COC(=O)N[C@H]2CNC2=O)cc1 [Example 40, [4-(o-Tolyl)-phenyl]-methyl-N-[(3S)-2-oxoazetidin-3-yl]-carbamate]
6.80	O=C(N[C@H]1CNC1=O)OCc1ccc(OC2CCCCC2)cc1 [Example 64, [4-(Cyclohexoxy)-phenyl]-methyl-N-[(3S)-2-oxoazetidin-3-yl]-carbamate]
7.51	O=C(N[C@H]1CNC1=O)OCc1ccc(C2CCCC2)cc1 [Example 55, (4-Cyclopentylphenyl)-methyl-N-[(3S)-2-oxoazetidin-3-yl]-carbamate]
6.23	Cc1cc(COC(=O)N[C@H]2CNC2=O)ccc1-c1ccccc1 [Example 44, (3-Methyl-4-phenyl-phenyl)-methyl-N-[(3S)-2-oxoazetidin-3-yl]-carbamate]
5.92	O=C(N[C@H]1CNC1=O)OCc1cccc(Cc2ccccc2)c1 [Example 32, (3-Benzylphenyl)-methyl-N-[(3S)-2-oxoazetidin-3-yl]-carbamate]
6.21	O=C(N[C@H]1CNC1=O)OCCCCCc1ccccc1 [Example 3, 5-Phenylpentyl-N-[(3S)-2-oxoazetidin-3-yl]-carbamate]
6.17	O=C(N[C@H]1CNC1=O)OCCCCc1ccc(C(F)(F)F)cc1 [Example 38, 4-[4-(Trifluoromethyl)-phenyl]-butyl-N-[(3S)-2-oxoazetidin-3-yl]-carbamate]
7.34	CCCCc1ccc(COC(=O)N[C@H]2CNC2=O)cc1 [Example 26, (4-Butylphenyl)-methyl-N-[(3S)-2-oxoazetidin-3-yl]-carbamate]
5.70	Cc1ccccc1CCCCOC(=O)N[C@H]1CNC1=O [Example 29, 4-(o-Tolyl)-butyl-N-[(3S)-2-oxoazetidin-3-yl]-carbamate]
5.18	O=C(N[C@H]1CNC1=O)OCC/C=C/c1ccccc1 [Example 11, [(E)-4-Phenylbut-3-enyl]-N-[(3S)-2-oxoazetidin-3-yl]-carbamate]
5.30	O=C(N[C@H]1CNC1=O)OCCc1ccc(-c2ccccc2)cc1 [Example 36, 2-(4-Phenylphenyl)-ethyl-N-[(3S)-2-oxoazetidin-3-yl]-carbamate]
5.29	C[C@H]1NC(=O)[C@@H]1NC(=O)OCc1ccc(C2CCCCC2)cc1 [Example 82, (4-Cyclohexylphenyl)-methyl-N-[(2R,3R)-2-methyl-4-oxo-azetidin-3-yl]-carbamate]

Same assay, conditions: @ 30 μM; read-out: r-NAAA UPLC/MS assay % inhib.

inhibition at 30 µM	Compound
35%	C[C@H]1NC(=O)[C@H]1NC(=O)OCCCCCc1ccccc1 [Example 79, 5-Phenylpentyl-N-[(2R,3S)-2-methyl-4-oxo-azetidin-3-yl]-carbamate]
20%	C#CCCOC(=O)N[C@H]1CNC1=O [Example 65, But-3-ynyl-N-[(3S)-2-oxoazetidin-3-yl]-carbamate]

Same assay, conditions: @100 μM

Compound	r-NAAA UPLC/MS assay (n.a.)
CC1(C)NC(=O)[C@@H]1NC(=O)OCc1ccc(-c2ccccc2)cc1 [Example 90, (4-Phenylphenyl)-methyl-N-[(3R)-2,2-dimethyl-4-oxo-azetidin-3-yl]-carbamate]	n.a. (n.a. = <10% inhib. @100 μM)
CC1(C)NC(=O)[C@H]1NC(=O)OCc1ccc(C2CCCCC2)cc1 [Example 88, (4-Cyclohexylphenyl)-methyl-N-[(3S)-2,2-dimethyl-4-oxo-azetidin-3-yl]-carbamate]	n.a. (n.a. = <10% inhib. @100 μM)
CC1(C)NC(=O)[C@@H]1NC(=O)OCCCCC1CCCCC1 [Example 89, 4-Cyclohexylbutyl-N-[(3R)-2,2-dimethyl-4-oxo-azetidin-3-yl]-carbamate]	n.a. (n.a. = <10% inhib. @100 μM)
C[C@H]1NC(=O)[C@@H]1NC(=O)OCc1ccc(-c2ccccc2)cc1 [Example 81, (4-Phenylphenyl)-methyl-N-[(2R,3R)-2-methyl-4-oxo-azetidin-3-yl]-carbamate]	n.a. (n.a. = <10% inhib. @100 μM)
C[C@H]1NC(=O)[C@H]1NC(=O)OCc1ccc(-c2ccccc2)cc1 [Example 77, (4-Phenylphenyl)-methyl-N-[(2R,3S)-2-methyl-4-oxo-azetidin-3-yl]-carbamate]	n.a. (n.a. = <10% inhib. @100 μM)
CC1(C)NC(=O)[C@@H]1NC(=O)OCc1ccc(C2CCCCC2)cc1 [Example 91, (4-Cyclohexylphenyl)-methyl-N-[(3R)-2,2-dimethyl-4-oxo-azetidin-3-yl]-carbamate]	n.a. (n.a. = <10% inhib. @100 μM)
O=C(N[C@H]1CNC1=O)OCc1ccccc1C1CCCCC1 [Example 35, (2-Cyclohexylphenyl)-methyl-N-[(3S)-2-oxoazetidin-3-yl]-carbamate]	n.a. (n.a. = <10% inhib. @100 μM)
O=C(N[C@H]1CNC1=O)OCCCCc1ccccn1 [Example 37, 4-(2-Pyridyl)-butyl-N-[(3S)-2-oxoazetidin-3-yl]-carbamate]	n.a. (n.a. = <10% inhib. @100 μM)
CC1(C)NC(=O)[C@H]1NC(=O)OCc1ccc(-c2ccccc2)cc1 [Example 87, (4-Phenylphenyl)-methyl-N-[(3S)-2,2-dimethyl-4-oxo-azetidin-3-yl]-carbamate]	n.a. (n.a. = <10% inhib. @100 μM)

Same assay, conditions: @100 μM; read-out: r-NAAA UPLC/MS assay % inhib.

inhibition at 100 µM	Compound
18%	CC1(C)NC(=O)[C@H]1NC(=O)OCCCCC1CCCCC1 [Example 86, 4-Cyclohexylbutyl-N-[(3S)-2,2-dimethyl-4-oxo-azetidin-3-yl]-carbamate]

Same assay, conditions: read-out: r-NAAA UPLC/MS assay % inhib.

Compound	inhibition at 100 µM	inhibition at 30 µM
C[C@H]1NC(=O)[C@H]1NC(=O)OCc1ccc(C2CCCCC2)cc1 [Example 78, (4-Cyclohexylphenyl)-methyl-N-[(2R,3S)-2-methyl-4-oxo-azetidin-3-yl]-carbamate]	55%	
O=C(N[C@H]1CNC1=O)OCc1ccc(-c2ccncc2)cc1 [Example 45, [4-(4-Pyridyl)-phenyl]-methyl-N-[(3S)-2-oxoazetidin-3-yl]-carbamate]		48%
